SMILES strings stand for the structures.

For one data set, the target named is T1, human TLR7 (Homo sapiens, UniProt Q9NYK1).
T1 construct: host or cells: HEK293 with NF-kB-responsive SEAP reporter
T1 sequence (Q9NYK1 27-1049): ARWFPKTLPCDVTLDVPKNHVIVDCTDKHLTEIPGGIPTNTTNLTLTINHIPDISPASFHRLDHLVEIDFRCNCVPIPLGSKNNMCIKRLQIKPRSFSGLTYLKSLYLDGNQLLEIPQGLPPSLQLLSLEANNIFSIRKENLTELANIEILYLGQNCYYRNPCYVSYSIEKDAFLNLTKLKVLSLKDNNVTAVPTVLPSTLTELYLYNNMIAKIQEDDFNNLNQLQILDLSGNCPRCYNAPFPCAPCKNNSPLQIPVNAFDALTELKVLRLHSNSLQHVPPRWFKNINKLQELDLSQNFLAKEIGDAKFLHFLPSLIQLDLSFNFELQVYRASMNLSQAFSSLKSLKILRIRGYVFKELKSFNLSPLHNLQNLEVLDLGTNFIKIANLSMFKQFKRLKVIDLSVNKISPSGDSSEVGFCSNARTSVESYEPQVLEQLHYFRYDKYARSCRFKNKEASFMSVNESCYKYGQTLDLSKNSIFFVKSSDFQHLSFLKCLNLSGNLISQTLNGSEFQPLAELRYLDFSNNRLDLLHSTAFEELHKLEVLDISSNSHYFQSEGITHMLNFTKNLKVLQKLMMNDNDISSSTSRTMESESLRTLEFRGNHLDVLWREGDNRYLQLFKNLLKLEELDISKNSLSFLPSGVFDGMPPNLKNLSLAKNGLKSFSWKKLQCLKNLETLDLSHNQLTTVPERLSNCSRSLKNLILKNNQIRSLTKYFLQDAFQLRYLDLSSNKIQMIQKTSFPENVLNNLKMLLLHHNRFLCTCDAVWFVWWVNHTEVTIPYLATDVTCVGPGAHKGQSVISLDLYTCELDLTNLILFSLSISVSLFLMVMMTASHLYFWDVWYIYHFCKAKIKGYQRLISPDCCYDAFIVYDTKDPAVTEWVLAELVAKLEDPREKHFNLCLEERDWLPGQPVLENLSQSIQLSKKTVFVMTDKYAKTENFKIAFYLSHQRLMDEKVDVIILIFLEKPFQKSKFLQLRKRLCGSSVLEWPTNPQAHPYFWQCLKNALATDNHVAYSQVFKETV
Conditions: HEK293 cells stably expressing human TLR7 (ref. 24); cited from earlier work.

For data set [1] the following is noted: rats.
The test system of a further data set is PnPS-specific B cells. The data set is described as follows: Pneumococcal polysaccharide-specific B cells (ELISpot). The format is in vivo, rhesus macaques (Macaca mulatta). Conditions: control condition, adjuvant alone. An excerpt: Characterization of pneumococcal polysaccharide-specific B cells. Rhesus macaque peripheral blood mononuclear cells (PBMCs) were labeled with anti-CD14-PE (clone M5E2), CD20-V450 (clone L27), CD27-PE.Cy7 (clone M-T271), CD4-FITC (clone SK3) Ab's (BD Biosciences). Sorting of CD14+ monocytes, CD20+CD27− naïve B cells, CD20+CD27+ memory B cells, and CD4+Th cells employed a FACSAria™ II cell sorter. Anti-pneumococcal B cells in peripheral blood were enumerated in sorted B cell populations. […] Secreted immunoglobulins were detected using horseradish peroxidase-conjugated goat-anti-rhesus immunoglobulin (Nordic Immunological Laboratories; Eindhoven, The Netherlands). Spots were developed using 3,3′,5,5′-Tetramethylbenzidine (TMB) (Mabtech, Mariemont; OH, USA) and visualized and counted using a series 5 ELISpot™ analyzer (Cellular Technology Limited, Shaker Heights; OH, USA). The fraction of pneumococcal polysaccharide-specific B cells was quantified as the ratio of the spots detected in polysaccharide-coated wells to spots detected in immunoglobulin-coated wells, after correction for dilution.

The test system of data set [2] is human neonatal and adult blood. In words: Human whole blood assay, cytokine induction (CRX adjuvants). It is filed as cell-based. On the procedure:
Human blood was anti-coagulated with 20 units/ml pyrogen-free sodium heparin (American Pharmaceutical Partners, Inc.; Schaumberg, Ill.). All blood products were kept at room temperature and processed within 4 hours from collection. Human whole blood assays were completed as previously described. Briefly, neonatal cord blood or adult whole blood (WB) was mixed 1:1 with sterile pre-warmed (37° C.) RPMI 1640 medium (Invitrogen; Carlsbad, Calif.) and 180-225 μl of the 1:1 suspension was added to each well of a 96 well U-bottom plate (Becton Dickinson; Franklin Lakes, N.J., USA) containing 20-25 μl freshly prepared specific TLRAs at 10× the final concentration. Suspensions containing 200-250 μl/well were gently mixed by pipetting and incubated for 6 hours at 37° C. in a humidified incubator at 5%, CO2. After culture, plates were centrifuged at 500×g and ˜100-150 μl of supernatant was carefully removed by pipetting without disturbing the cell pellet. Supernatants derived from human leukocyte stimulations were assayed by ELISA for TNF and IFNγ (BD Biosciences; San Jose, Calif., USA).
Additionally, for both newborn and adult readouts, cytokine and chemokine expression profiles in cell culture supernatants and peripheral blood plasma were measured using customized Milliplex™ human cytokine/chemokine magnetic bead panels (Millipore; Billerica, Mass., USA). Assays were analyzed on the Luminex® 100/200™ System employing xPOTENT® software (Luminex; Austin, Tex.) and Millipore Milliplex Analyst™ (version 3.5.5.0). The minimum threshold for each analyte was set at the minimum detectable concentration for a given assay, defined as three standard deviations above the mean background. CL075 (TLR8/7) was purchased from InvivoGen (San Diego, Calif.) and used at the concentrations noted in the figure legends.

[3] abbreviates: 1 μM and 10 μM, newborn over adult whole blood.

On to `CCCCCCCCCCCCCCCCCC(=O)NCCCCOn1c(CCCC)nc2c(N)nc3ccccc3c21` [3M-052, N-[4-[(4-amino-2-butyl-1H-imidazo[4,5-c]quinolin-1-yl)oxy]butyl]octadecanamide], for which the “agonist activity, human TLR7” value at human TLR7 is “Dual agonist activity”. The 3M-052 in serum result in data set [1] (0.1 mg/kg, up to 24 hours post-dose) is listed as “not detectable”. In addition, the “serum 3M-052 peak” value in data set [1] (1 mg/kg, 4 hour peak) was roughly 50 pmol/mL. Besides, the “non-specific polysaccharide in vitro activation of B cells” value with PnPS-specific B cells is no more than 1.0%.

Take `CCCCc1nc2c(N)nc3ccccc3c2n1CCO` [CRX-649]: in data set [2] (setting [3]), the “CXCL8, CXCL10, CCL2 and GM-CSF production (multiplex)” value is “greater CRX-649 induced production in newborn blood”; the “production of IL-1β, L-6, IL-10, and IL-12p40 (multiplex)” value is recorded as “concentration-dependent production”. Further, the “IFNγ production in newborn blood relative to similarly treated adult blood” value in data set [2] (10 μM) is reported as “twice”. The “TNF production in newborn cord blood versus adult” value in data set [2] (6 hours) is “more than adult-like age-specific potency and effectiveness”. For the same compound, the IFNγ production in data set [2] (newborn blood, 10 μM, 6 hours) is roughly 1200 pg/mL. Further, the “induction of IFNγ” value in data set [2] (newborn cord blood, 6 hours) was “greatest potency, effectiveness and IFNγ polarization”.

These data come from patent US11464854B2, “Methods and compositions relating to adjuvants” (Children's Medical Center Corporation, priority 2017, dated 2022).
